In data set [1] the target is T1, Synaptic vesicular amine transporter (Rattus norvegicus, UniProt Q01827). In words: Displacement of [18F](+)-FP-DTBZ from VMAT2 in rat striatal homogenate after 60 mins by gamma counting.
Data set [2] addresses T1, Synaptic vesicular amine transporter. Description: Displacement of [125I]-iodovinyl-TBZ from VMAT2 in rat striatal homogenate after 60 mins by gamma counting.
The next data set concerns Nucleic Acid. Description: Ratio of drug uptake in striatum to cerebellum in ICR mouse at 10 to 20 uCi, iv by gamma counting. The class given is ADME, organism-based. The note with it: in vivo.

In general, pKi refers to the Ki on a negative log10 scale, so that one unit is a factor of ten. High values mean a low Ki, low ones a high Ki.

pKi: −log10 of the molar value.

T1 sequence (Q01827 whole entry): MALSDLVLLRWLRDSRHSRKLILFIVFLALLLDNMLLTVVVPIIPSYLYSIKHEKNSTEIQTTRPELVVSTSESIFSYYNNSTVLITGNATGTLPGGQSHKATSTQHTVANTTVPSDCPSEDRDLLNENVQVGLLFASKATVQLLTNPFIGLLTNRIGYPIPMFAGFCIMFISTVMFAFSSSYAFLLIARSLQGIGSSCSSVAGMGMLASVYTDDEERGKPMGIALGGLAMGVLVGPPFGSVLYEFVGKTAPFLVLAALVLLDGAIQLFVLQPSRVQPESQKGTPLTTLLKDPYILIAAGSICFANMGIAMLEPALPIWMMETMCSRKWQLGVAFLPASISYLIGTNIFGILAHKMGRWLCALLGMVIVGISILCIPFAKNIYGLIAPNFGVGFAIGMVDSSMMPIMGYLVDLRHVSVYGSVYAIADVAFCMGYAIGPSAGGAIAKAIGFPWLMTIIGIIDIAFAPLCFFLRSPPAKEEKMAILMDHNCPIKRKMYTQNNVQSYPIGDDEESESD

In data set [1], `C=CCC1CN2CCc3cc(OC)c(OC)cc3C2C[C@H]1O` (mixture of isomers) showed a pKi of 6.60.
For `COc1cc2c(cc1OC)C1C[C@@H](O)C(CC3CCC3)CN1CC2` (mixture of isomers), the pKi in data set [2] is 7.57.
The same measure, in the same setting: the same measure for `COc1cc2c(cc1OC)C1C[C@@H](O)C(CC3CCCC3)CN1CC2` (mixture of isomers): 6.64; for `COc1cc2c(cc1OC)C1C[C@@H](O)C(CC3CCCCC3)CN1CC2` (mixture of isomers): 6.86.
For the molecule `C/C=C/C1CN2CCc3cc(OCCCF)c(OC)cc3C2C[C@H]1O` (mixture of isomers), in data set [1], the pKi is 7.65.
On to `COc1cc2c(cc1OCCC[18F])CCN1C[C@@H](CC(C)C)[C@H](O)C[C@H]21` [FLORBENAZINE F 18], for which the Ratio in the data set with Nucleic Acid stood at 4.51.
On to `COc1cc2c(cc1OCCCF)CCN1C[C@@H](CC(C)C)[C@H](O)C[C@H]21` [FLORBENAZINE], for which the pKi in data set [2] was 10.00.

Values taken from ChEMBL document CHEMBL1777673, “Synthesis and biological evaluation of 3-alkyl-dihydrotetrabenazine derivatives as vesicular monoamine transporter-2 (VMAT2) ligands” (Bioorg Med Chem Lett, 2011).
